Species: Rattus norvegicus
Assay: DrugMatrix - Regimen: Daily Repeat
Type: toxicity, organism-based, Sprague-Dawley
Set-up: regimen Daily Repeat, gender Male, age 6-8 weeks
Settings: in vivo, po, route oral GAVAGE, vehicle .5 % CMC; for BASOPHIL / EOSINOPHIL / ERYTHROCYTE COUNT / HEMATOCRIT / HEMOGLOBIN / LEUKOCYTE COUNT / LYMPHOCYTE / MEAN CORPUSCULAR HEMOGLOBIN / MEAN CORPUSCULAR HEMOGLOBIN CONCENTRATION / MEAN CORPUSCULAR VOLUME / MONOCYTE / NEUTROPHIL / PLATELET COUNT: tissue Blood; for ALANINE AMINOTRANSFERASE / ALBUMIN / ALKALINE PHOSPHATASE / ASPARTATE AMINOTRANSFERASE / BLOOD UREA NITROGEN / CHLORIDE / CHOLESTEROL / CREATINE PHOSPHOKINASE / CREATININE / GLUCOSE / PHOSPHORUS / POTASSIUM / SODIUM / TOTAL BILIRUBIN / TOTAL PROTEIN: tissue Plasma
[1] = 40 mg/kg, 72 h, dose level Low, time 3 day
[2] = 40 mg/kg, 120 h, dose level Low, time 5 day
[3] = 99 mg/kg, 72 h, dose level High, time 3 day
[4] = 99 mg/kg, 120 h, dose level High, time 5 day

CO[C@H]1/C=C/O[C@@]2(C)Oc3c(C)c(O)c4c(O)c(c(/C=N/N5CCN(C)CC5)c(O)c4c3C2=O)NC(=O)/C(C)=C\C=C\[C@H](C)[C@H](O)[C@@H](C)[C@@H](O)[C@@H](C)[C@H](OC(C)=O)[C@@H]1C [RIFAMPIN]
BASOPHIL [1]: 0% | EOSINOPHIL [1]: 0% | ERYTHROCYTE COUNT [1]: 6.01 x10E6/uL | HEMATOCRIT [1]: 36.73% | HEMOGLOBIN [1]: 14.33 G/DL | LEUKOCYTE COUNT [1]: 9.07 x10E3/uL | LYMPHOCYTE [1]: 88% | MEAN CORPUSCULAR HEMOGLOBIN [1]: 23.83 pg | MEAN CORPUSCULAR HEMOGLOBIN CONCENTRATION [1]: 39.03 G/DL | MEAN CORPUSCULAR VOLUME [1]: 61.1 fL | MONOCYTE [1]: 2.33% | NEUTROPHIL [1]: 9.67% | PLATELET COUNT [1]: 1111.33 x10E3/uL | ALANINE AMINOTRANSFERASE [1]: 36 u/L | ALBUMIN [1]: 3.6 G/DL | ALKALINE PHOSPHATASE [1]: 274 u/L | ASPARTATE AMINOTRANSFERASE [1]: 60 u/L | BLOOD UREA NITROGEN [1]: 9 mg/dL | CHLORIDE [1]: 108 MEQ/L | CHOLESTEROL [1]: 63.33 mg/dL | CREATINE PHOSPHOKINASE [1]: 115.33 u/L | CREATININE [1]: 0.43 mg/dL | GLUCOSE [1]: 170.33 mg/dL | PHOSPHORUS [1]: 11.3 mg/dL | POTASSIUM [1]: 6.6 MEQ/L | SODIUM [1]: 152.67 MEQ/L | TOTAL BILIRUBIN [1]: 0.33 mg/dL | TOTAL PROTEIN [1]: 5.73 G/DL | BASOPHIL [2]: 0% | EOSINOPHIL [2]: 0% | ERYTHROCYTE COUNT [2]: 6.22 x10E6/uL | HEMATOCRIT [2]: 36.5% | HEMOGLOBIN [2]: 14.57 G/DL | LEUKOCYTE COUNT [2]: 14.23 x10E3/uL | LYMPHOCYTE [2]: 89.33% | MEAN CORPUSCULAR HEMOGLOBIN [2]: 23.47 pg | MEAN CORPUSCULAR HEMOGLOBIN CONCENTRATION [2]: 39.93 G/DL | MEAN CORPUSCULAR VOLUME [2]: 58.8 fL | MONOCYTE [2]: 2.67% | NEUTROPHIL [2]: 8% | PLATELET COUNT [2]: 1082.67 x10E3/uL | ALANINE AMINOTRANSFERASE [2]: 42.33 u/L | ALBUMIN [2]: 3.7 G/DL | ALKALINE PHOSPHATASE [2]: 325 u/L | ASPARTATE AMINOTRANSFERASE [2]: 62.67 u/L | BLOOD UREA NITROGEN [2]: 13.67 mg/dL | CHLORIDE [2]: 107.33 MEQ/L | CHOLESTEROL [2]: 78.33 mg/dL | CREATINE PHOSPHOKINASE [2]: 142 u/L | CREATININE [2]: 0.57 mg/dL | GLUCOSE [2]: 180.33 mg/dL | PHOSPHORUS [2]: 10.97 mg/dL | POTASSIUM [2]: 6.63 MEQ/L | SODIUM [2]: 150.33 MEQ/L | TOTAL BILIRUBIN [2]: 0.3 mg/dL | TOTAL PROTEIN [2]: 6.03 G/DL | BASOPHIL [3]: 0% | EOSINOPHIL [3]: 0.33% | ERYTHROCYTE COUNT [3]: 5.7 x10E6/uL | HEMATOCRIT [3]: 35.03% | HEMOGLOBIN [3]: 13.93 G/DL | LEUKOCYTE COUNT [3]: 12.7 x10E3/uL | LYMPHOCYTE [3]: 89% | MEAN CORPUSCULAR HEMOGLOBIN [3]: 24.47 pg | MEAN CORPUSCULAR HEMOGLOBIN CONCENTRATION [3]: 39.77 G/DL | MEAN CORPUSCULAR VOLUME [3]: 61.5 fL | MONOCYTE [3]: 2% | NEUTROPHIL [3]: 8.67% | PLATELET COUNT [3]: 1047.33 x10E3/uL | ALANINE AMINOTRANSFERASE [3]: 41 u/L | ALBUMIN [3]: 3.8 G/DL | ALKALINE PHOSPHATASE [3]: 360.33 u/L | ASPARTATE AMINOTRANSFERASE [3]: 60 u/L | BLOOD UREA NITROGEN [3]: 10.67 mg/dL | CHLORIDE [3]: 106.67 MEQ/L | CHOLESTEROL [3]: 93.67 mg/dL | CREATINE PHOSPHOKINASE [3]: 139 u/L | CREATININE [3]: 0.43 mg/dL | GLUCOSE [3]: 166.33 mg/dL | PHOSPHORUS [3]: 11.6 mg/dL | POTASSIUM [3]: 6.4 MEQ/L | SODIUM [3]: 153 MEQ/L | TOTAL BILIRUBIN [3]: 0.3 mg/dL | TOTAL PROTEIN [3]: 6.1 G/DL | BASOPHIL [4]: 0% | EOSINOPHIL [4]: 0.33% | ERYTHROCYTE COUNT [4]: 5.79 x10E6/uL | HEMATOCRIT [4]: 34.87% | HEMOGLOBIN [4]: 13.73 G/DL | LEUKOCYTE COUNT [4]: 17.13 x10E3/uL | LYMPHOCYTE [4]: 85% | MEAN CORPUSCULAR HEMOGLOBIN [4]: 23.73 pg | MEAN CORPUSCULAR HEMOGLOBIN CONCENTRATION [4]: 39.4 G/DL | MEAN CORPUSCULAR VOLUME [4]: 60.23 fL | MONOCYTE [4]: 2% | NEUTROPHIL [4]: 12.67% | PLATELET COUNT [4]: 1010.67 x10E3/uL | ALANINE AMINOTRANSFERASE [4]: 46 u/L | ALBUMIN [4]: 3.6 G/DL | ALKALINE PHOSPHATASE [4]: 384.33 u/L | ASPARTATE AMINOTRANSFERASE [4]: 64.33 u/L | BLOOD UREA NITROGEN [4]: 11.33 mg/dL | CHLORIDE [4]: 108.33 MEQ/L | CHOLESTEROL [4]: 75 mg/dL | CREATINE PHOSPHOKINASE [4]: 143 u/L | CREATININE [4]: 0.5 mg/dL | GLUCOSE [4]: 177.67 mg/dL | PHOSPHORUS [4]: 11.1 mg/dL | POTASSIUM [4]: 6.3 MEQ/L | SODIUM [4]: 149.33 MEQ/L | TOTAL BILIRUBIN [4]: 0.37 mg/dL | TOTAL PROTEIN [4]: 5.67 G/DL
